Results on three compounds are retold here after patent publication US11685766B2, “14-3-3 targeting peptides for cancer treatment” (Creighton University, priority 2019, dated 2023).

Entries after “also recorded” stand apart in the source; their conditions may differ. Peptide text beside a SMILES is read from it.

One assay deals with SCC12B.2 cells. The experiment in a line: Caspase-3/7 Glo assay (apoptosis). The assay is classed as cell-based, human. As to conditions: ES1P2 20 μM; pS 30 μM; pT 20 μM, 24 hours; vs vehicle. The protocol:
Apoptosis was assessed using a Caspase-3/7 Glo assay (Promega Corporation, Madison, Wis., USA) in a 96-well white-bottom plate (BRANDplates, Wertheim, Germany) according to the manufacturer's instructions. Cells were seeded at a density of 8×10^3 cells/well and incubated overnight before treatments or transfections. Luminescence was read using a Cytation 5 multi-mode plate reader (BioTek Instruments, Winooski, Vt., USA).
Apoptosis was assessed using a Caspase-3/7 Glo assay (Promega) in a 96-well white-bottom plate (BRANDplates, Wertheim, Germany). Cells were seeded at a density of 8×10^3 cells/well and Caspase-3/7 glo was performed 24 hours post-treatment according to the manufacturer's instructions and read using a Cytation 5 multi-mode plate reader (BioTek, Instruments, Winooski, Vt., USA).

The test system of assay [1] is SCC13 cells xenograft tumors. The experiment in a line: Mouse SCC tumor xenografts (TUNEL, immunofluorescence, tumor growth). The assay is classed as in vivo. As to conditions: for tumor volume compared to vehicle-treated xenografts: mouse xenograft tumors; for P-Akt (S473) levels in SCC xenografts (immunofluorescence) / Survivin levels in SCC xenografts (immunofluorescence): vs vehicle-treated xenografts; for increase in number of TUNEL-positive SCC cells compared to vehicle: intratumoral 2.5 nmol/50 μL, NCG mice, SCC13. As to the method: Immunofluorescence was performed using an alexa-fluor488-conjugated secondary antibody (IgG mouse or rabbit) (Invitrogen) with 4′,6-diamidino-2-phenylindole (DAPI) (Vector Labs, Burlingame, Calif., USA) to identify nuclei. Cellular localization of immunohistochemistry signal was determined in a double-blinded manner. Slides were digitalized and fluorescence intensity was measured using Image analysis was performed using the Olympus VS120 Slide Scanner and Olyvia Analysis Software, respectively (Olympus, Tokyo, Japan).
Groups of NCG mice (NOD CRISPR Prkdc Il2r gamma/NjuCrl) (Charles River, Malvern, Pa., USA) were injected s.c. with 5×10^5 SCC13 cells suspended in 1:1 mixture of 1×PBS:Matrigel (Corning, Corning, N.Y., USA). Once the tumors reached a volume of 150 mm^3, tumors were treated with either vehicle (50 μL 1×PBS) or 2.5 nmol/50 μL of the targeting peptide ES1P2. Tumors were injected directly with either vehicle or ES1P2 daily for 2 days or every other day for 2 weeks and then harvested for analysis 24 hours after the last treatment. Tumors were fixed overnight in 10% buffered formalin (Thermo Fisher) and then switched to 70% ethanol the following day. All procedures were performed in accordance with the guidance of Creighton University Institutional Animal Care and Use Committee.
TUNEL (Terminal deoxynucleotidyl transferase dUTP nick end labeling) was carried out using Promega DeadEnd Fluorometric TUNEL system in accordance with the manufacturer's instructions (Promega). Cells were treated with DAPI (Vector Labs) to locate the nuclei within cells. […] Slides were digitalized and apoptotic nuclei counted using an Olympus VS120 Slide Scanner (Olympus).
Immunostaining was performed using antibodies recognizing P-Akt (S473) (Thermo Fisher) and Survivin (Cell Signaling, Danvers, Mass., USA), with alexa-fluor488-conjugated secondary antibody (IgG rabbit) (Invitrogen) with 4′,6-diamidino-2-phenylindole (DAPI) (Vector Labs, Burlingame, Calif., USA) to identify the nuclei. Slides were digitalized and analyzed using an Olympus VS120 Slide Scanner (Olympus, Shinjuku, Tokyo, JPN).
Groups of NCG mice (NOD CRISPR Prkdc Il2r gamma/NjuCrl) (Charles River, Malvern, Pa., USA) were injected s.c. with 5×10^5 human SCC13 cells suspended in 1:1 mixture of 1×PBS:Matrigel (Corning, Corning, N.Y., USA). Once the tumors reached 150 mm^3 in volume they were treated intratumorally with either vehicle (1× sterile PBS, pH, 7.5), pS, or pT (2.5 nmol/50 μL for each) daily for 2 days and then the mice were euthanized 24 hours after the second treatment. Tumors were fixed overnight in 10% neutral buffered formalin (Thermo Fisher) and then switched to 70% ethanol the following day before embedding and sectioning. All procedures were performed in accordance with the guidance of the Creighton University Institutional Animal Care and Use Committee.
TUNEL (terminal uridine nick-end labelling) assays were carried out using the Promega DeadEnd Fluorometric TUNEL system in accordance with the manufacturer's instructions (Promega Corporation, Madison, Wis., USA). Cells were treated with 4′,6-diamidino-2-phenylindole (DAPI) to locate the nuclei within cells. Slides were scanned and analyzed using an Olympus VS120 Slide Scanner (Olympus).

`NCCCC[C@H](NC(=O)[C@H](Cc1c[nH]c2ccccc12)NC(=O)[C@H](Cc1ccc(O)cc1)NC(=O)[C@@H](N)Cc1c[nH]c2ccccc12)C(N)=O` [ES1P2, Trp-Tyr-Trp-Lys-NH2] (H-WYWK-NH2): in the assay with SCC12B.2 cells, the “apoptosis of SCC cells (Caspase-3/7)” value is on record as “increasing apoptosis to a statistically significant degree”. The “number of TUNEL-positive SCC cells compared to vehicle” value in assay [1] (intratumoral 2.5 nmol, 2 daily treatments) is “more than doubled”. In addition, in assay [1], the “tumor volume compared to vehicle-treated xenografts” value is “decreased tumor growth; also recorded: reduced tumor volume”, the “P-Akt (S473) levels in SCC xenografts (immunofluorescence)” value (“P-Akt (S473) levels in SCC xenografts” for short) is given as “decreased” and the “Survivin levels in SCC xenografts (immunofluorescence)” value (“Survivin levels in SCC xenografts” below) is “decreased”. Moreover, the “reduction of SCC growth compared to vehicle” value in assay [1] (repeated intratumoral treatments of SCC xenografts, FIG. 1H/1I) was “approximately one-third”.
For `CSCC[C@H](NC(=O)[C@H](CCCNC(=N)N)NC(=O)[C@@H]1CCCN1C(=O)[C@H](C)NC(=O)[C@H](COP(=O)(O)O)NC(=O)[C@H](CC(N)=O)NC(=O)[C@H](CCC(N)=O)NC(=O)[C@H](CCCNC(=N)N)NC(=O)[C@H](CCC(N)=O)NC(=O)[C@@H](NC(C)=O)[C@@H](C)O)C(=O)N[C@@H](CC(C)C)C(=O)N[C@@H](CO)C(=O)N[C@@H](CO)C(=O)N[C@@H](CC(N)=O)C(N)=O` [pS, Ac-Thr-Gln-Arg-Gln-Asn-Ser-(PO3^2−)-Ala-Pro-Arg-Met-Leu-Ser-Ser-Asn-NH2] (HELM PEPTIDE1{[ac].T.Q.R.Q.N.[O=C([C@H](COP(=O)(O)O)N[*:1])[*:2]].A.P.R.M.L.S.S.N.[am]}$$$$V2.0), in the assay on SCC12B.2 cells, the “apoptosis of SCC cells (Caspase-3/7)” value is listed as “increased apoptosis”. For the same compound, the “increase in number of TUNEL-positive SCC cells compared to vehicle” value in assay [1] (2 daily treatments) was 25%. In assay [1], the “tumor volume compared to vehicle-treated xenografts” value is “decreased volume”, the “P-Akt (S473) levels in SCC xenografts” value is “decreased” and the “Survivin levels in SCC xenografts” value is given as “decreased”.
Consider `CC(=O)N[C@@H](CCCNC(=N)N)C(=O)N[C@H](C(=O)N[C@@H](CCCCN)C(=O)N[C@@H](CO)C(=O)N[C@@H](CCCNC(=N)N)C(=O)N[C@H](C(=O)N[C@@H](Cc1c[nH]c2ccccc12)C(=O)N[C@@H](C)C(=O)NCC(=O)N[C@@H](CCC(=O)O)C(=O)N[C@@H](CCCCN)C(=O)N[C@@H](CO)C(=O)N[C@@H](CCCCN)C(=O)N[C@@H](CCCNC(=N)N)C(N)=O)[C@@H](C)OP(=O)(O)O)[C@@H](C)O` [pT, Ac-Arg-Thr-Lys-Ser-Arg-Thr(PO3^2−)-Trp-Ala-Gly-Glu-Lys-Ser-Lys-Arg-NH2] (HELM PEPTIDE1{[ac].R.T.K.S.R.[C[C@@H](OP(=O)(O)O)[C@H](N[*:1])C(=O)[*:2]].W.A.G.E.K.S.K.R.[am]}$$$$V2.0), for which the “apoptosis of SCC cells (Caspase-3/7)” value with SCC12B.2 cells is recorded as “increased apoptosis”. In addition, in assay [1] (2 daily treatments), the “increase in number of TUNEL-positive SCC cells compared to vehicle” value is reported as 51%. In assay [1], the “tumor volume compared to vehicle-treated xenografts” value is reported as “decreased volume”, the “P-Akt (S473) levels in SCC xenografts” value is recorded as “decreased” and the “Survivin levels in SCC xenografts” value is “decreased”.
